Measured values published in US9186391B2, “Cyclic peptide inhibitors of lysine-specific demethylase 1” (MUSC FOUNDATION FOR RESEARCH DEVELOPMENT, priority 2013, dated 2015).
Read-outs that look alike come from different tables or passages of the source.

Key:
[1] = test system: Calu-6 lung tumor line; experiment: cells; type: cell-based, human; settings: MTS assay, 72 hours, read-out: IC50 growth inhibition in Calu-6 cells
[2] = target: T1, MAO-A (Homo sapiens, UniProt P21397); experiment: Inhibition of monoamine oxidase A in vitro; type: biochemical; settings: read-out: IC50 for inhibition against MAO-A
T1 sequence (P21397 1-527): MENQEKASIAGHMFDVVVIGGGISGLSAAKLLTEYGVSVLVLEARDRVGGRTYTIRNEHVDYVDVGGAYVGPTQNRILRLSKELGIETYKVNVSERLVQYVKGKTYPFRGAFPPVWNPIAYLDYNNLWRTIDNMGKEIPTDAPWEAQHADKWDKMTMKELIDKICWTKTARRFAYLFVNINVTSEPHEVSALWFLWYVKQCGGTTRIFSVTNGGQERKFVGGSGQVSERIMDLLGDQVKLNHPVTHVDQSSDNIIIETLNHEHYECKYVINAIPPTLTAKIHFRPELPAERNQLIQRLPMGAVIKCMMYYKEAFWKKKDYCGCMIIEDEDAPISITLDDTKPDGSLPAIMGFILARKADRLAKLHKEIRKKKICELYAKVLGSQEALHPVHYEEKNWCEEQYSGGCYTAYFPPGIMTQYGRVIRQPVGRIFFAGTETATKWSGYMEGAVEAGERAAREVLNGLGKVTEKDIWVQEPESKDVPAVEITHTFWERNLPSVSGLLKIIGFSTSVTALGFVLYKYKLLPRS
Description: (§1) Each data point is the average of three determinations±standard error.

[3] = target: T2, MAO-B (Homo sapiens, UniProt P27338); experiment: Inhibition of monoamine oxidase B in vitro; type: biochemical; settings: read-out: IC50 for inhibition against MAO-B
T2 sequence (P27338 1-520): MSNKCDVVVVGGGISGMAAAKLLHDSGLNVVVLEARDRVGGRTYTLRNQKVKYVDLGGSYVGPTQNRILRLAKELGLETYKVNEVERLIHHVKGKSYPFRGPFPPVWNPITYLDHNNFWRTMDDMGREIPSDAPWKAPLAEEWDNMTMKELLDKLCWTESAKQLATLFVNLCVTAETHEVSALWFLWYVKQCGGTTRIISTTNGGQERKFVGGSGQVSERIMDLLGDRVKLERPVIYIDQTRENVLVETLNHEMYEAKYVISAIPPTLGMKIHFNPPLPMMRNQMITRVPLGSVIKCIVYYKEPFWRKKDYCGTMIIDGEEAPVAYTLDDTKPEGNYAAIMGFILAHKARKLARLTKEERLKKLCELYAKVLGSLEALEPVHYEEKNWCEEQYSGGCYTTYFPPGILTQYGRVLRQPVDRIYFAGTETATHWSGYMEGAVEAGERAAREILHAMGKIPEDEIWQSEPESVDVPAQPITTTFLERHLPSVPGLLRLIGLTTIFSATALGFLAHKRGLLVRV
Description: as §1

[4] = test system: MCF-7 breast tumor line; type: cell-based; settings: MTS assay, 72 hours; read-out: IC50 growth inhibition in MCF-7 cells

Row | SMILES | IC50 ([1]; Homo sapiens, Calu-6) | IC50 [2] | IC50 [3] | IC50 [4] | IC50 [1]
1 | N=C(NCCCNCCCCCCCNCCCNC(=N)NC(=N)NCCC(c1ccccc1)c1ccccc1)NC(=N)NCCC(c1ccccc1)c1ccccc1 [compound 3, verlindamycin, reference compound] | 10.9 µM |  |  |  | 
2 | CSCC[C@H](NC(=O)[C@@H](NC(=O)[C@H](CCCNC(=N)N)NC(=O)[C@H](C)N)[C@@H](C)O)C(=O)N[C@H]1CCCCNC(=O)CC[C@@H](C(=O)N[C@H](C(=O)NCC(=O)NCC(=O)N[C@@H](CCCCN)C(=O)N[C@@H](C)C(=O)N2CCC[C@H]2C(=O)N[C@@H](CCCNC(=N)N)C(=O)N[C@@H](CCCCN)C(=O)N[C@@H](CCC(N)=O)C(=O)N[C@@H](CC(C)C)C(=O)N[C@@H](C)C(N)=O)[C@@H](C)O)NC(=O)[C@H](CCCCN)NC(=O)[C@H](CCCNC(=N)N)NC(=O)[C@H](C)NC(=O)[C@H]([C@@H](C)O)NC1=O [compound 11] |  | > 100 µM | > 100 µM | 157 µM | 125 µM
